Structures can show the parent of a compound that is named as a salt. Where two headings read alike, the source gives them in different places.
Key:
[1] = biological target: T1, SARS-CoV-2 PLpro (nsp3 1564–1878) (Severe acute respiratory syndrome coronavirus 2, UniProt P0DTD1); assay: biochemical; design: FRET-quenched peptide (Pro3) cleavage by PLpro, 10 min pre-incubation, slope over 20 min, normalised to no-compound control; conditions: high concentration screen, read-out: % of control remaining
[2] = biological target: T1, SARS-CoV-2 PLpro (nsp3 1564–1878); assay: biochemical; design: FRET-quenched peptide (Pro3) cleavage by PLpro, 10 min pre-incubation, slope over 20 min, normalised to no-compound control; conditions: low concentration screen, read-out: % of control remaining

**Q.** OCCOCCN1CCN(C(c2ccccc2)c2ccc(Cl)cc2)CC1 (stereo not shown) [Hydroxyzine 2HCl] was tested. Which remaining activity at 3.75 µM ([1]; Well no.=5082) did it give?
**A.** Its remaining activity at 3.75 µM is 99.9%.

**Q.** And the remaining activity at 1.25 µM ([2]; Well no.=5082)?
**A.** Its remaining activity at 1.25 µM is 98.5%.

**Q.** Which remaining activity at 3.75 µM ([1]; Well no.=6901) does the source give for OCCOCCN1CCN(C(c2ccccc2)c2ccc(Cl)cc2)CC1 (stereo not shown) [Hydroxyzine (dihydrochloride)] here?
**A.** The remaining activity at 3.75 µM was 98%.

**Q.** And the remaining activity at 1.25 µM ([2]; Well no.=6901)?
**A.** Its remaining activity at 1.25 µM is 100%.

**Q.** Which results are given for CN[C@H]1C[C@@H](N)[C@H](O)[C@@H](O[C@@H]2O[C@H](CO)[C@H](O)[C@@H]3OC4(O[C@H]23)O[C@H]([C@@H](N)CO)[C@H](O)[C@H](O)[C@H]4O)[C@@H]1O (stereo partly shown) [Hygromycin B]?
**A.** remaining activity at 3.75 µM ([1]; Well no.=5221): 102%; remaining activity at 1.25 µM ([2]; Well no.=5221): 99.8%

**Q.** What does the source list for C[C@H](CCC(=O)O)[C@H]1CC[C@H]2[C@@H]3C[C@H](O)[C@@H]4C[C@H](O)CC[C@]4(C)[C@H]3CC[C@]12C [Hyodeoxycholic acid]?
**A.** remaining activity at 3.75 µM ([1]; Well no.=5868): 101%; remaining activity at 1.25 µM ([2]; Well no.=5868): 103%

**Q.** Which results are given for CN1[C@@H]2CC[C@H]1C[C@@H](OC(=O)[C@H](CO)c1ccccc1)C2 [Hyoscyamine]?
**A.** remaining activity at 3.75 µM ([1]; Well no.=3727): 101%; remaining activity at 1.25 µM ([2]; Well no.=3727): 94.8%

**Q.** Which results are given for COC[C@@]12CC[C@H](OC)[C@@]34[C@@H]5C[C@@]6(O)[C@H](OC(=O)c7ccccc7)[C@@H]5[C@@](OC(C)=O)([C@@H]([C@H](OC)[C@H]13)[C@H]4N(C)C2)[C@@H](O)[C@@H]6OC [Hypaconitine]?
**A.** remaining activity at 3.75 µM ([1]; Well no.=6450): 87.8%; remaining activity at 1.25 µM ([2]; Well no.=6450): 88.9%

**Q.** Which remaining activity at 3.75 µM ([1]; Well no.=520) does the source give for Cc1cc(O)c2c(=O)c3c(O)cc(O)c4c5c(O)cc(O)c6c(=O)c7c(O)cc(C)c8c1c2c(c34)c(c78)c65 [Hypericin] here?
**A.** The remaining activity at 3.75 µM was 109%.

**Q.** What about the remaining activity at 3.75 µM ([1]; Well no.=3725) of the same molecule?
**A.** Its remaining activity at 3.75 µM is 97.9%.

**Q.** And the remaining activity at 1.25 µM ([2]; Well no.=520)?
**A.** Its remaining activity at 1.25 µM is 109%.

**Q.** And the remaining activity at 1.25 µM ([2]; Well no.=3725)?
**A.** The remaining activity at 1.25 µM was 96.4%.

**Q.** COc1c2c3c4c(c(OC)c(=O)c5c(O)cc(OC)c(c6c(OC)cc(O)c(c1=O)c63)c54)[C@@H](C(C)=O)[C@@](C)(O)C2 [Hypocrellin A] was tested. Which remaining activity at 3.75 µM ([1]; Well no.=3645) did it give?
**A.** Its remaining activity at 3.75 µM is 92.4%.

**Q.** What about the remaining activity at 1.25 µM ([2]; Well no.=3645) of the same molecule?
**A.** The remaining activity at 1.25 µM was 94%.

**Q.** Which results are given for COc1c(O)c2c(=O)cc(OC)c3c4c(OC)cc(=O)c5c(O)c(OC)c6c(c(c1CC(C)=C6C(C)=O)c23)c54 [Hypocrellin B]?
**A.** remaining activity at 3.75 µM ([1]; Well no.=3691): 103%; remaining activity at 1.25 µM ([2]; Well no.=3691): 100%

**Q.** What does the source list for NCCS(=O)O [Hypotaurine]?
**A.** remaining activity at 3.75 µM ([1]; Well no.=464): 102%; remaining activity at 3.75 µM ([1]; Well no.=7779): 103%; remaining activity at 1.25 µM ([2]; Well no.=464): 102%; remaining activity at 1.25 µM ([2]; Well no.=7779): 106%

**Q.** Which results are given for O=c1[nH]cnc2nc[nH]c12 [Hypoxanthine]?
**A.** remaining activity at 3.75 µM ([1]; Well no.=5246): 96.5%; remaining activity at 3.75 µM ([1]; Well no.=7269): 89.6%; remaining activity at 1.25 µM ([2]; Well no.=5246): 96.5%; remaining activity at 1.25 µM ([2]; Well no.=7269): 91.9%

**Q.** Which remaining activity at 3.75 µM ([1]; Well no.=1420) does the source give for COc1cc(/C=C(\C#N)C(=O)c2ccc(O)c(O)c2)cc(I)c1O [I-OMe-Tyrphostin AG 538] here?
**A.** Its remaining activity at 3.75 µM is 92.9%.

**Q.** And the remaining activity at 1.25 µM ([2]; Well no.=1420)?
**A.** The remaining activity at 1.25 µM was 93%.

**Q.** For CNC(=O)[C@H]1O[C@@H](n2cnc3c(NCc4cccc(I)c4)ncnc32)[C@H](O)[C@@H]1O [IB-MECA], which remaining activity at 3.75 µM ([1]; Well no.=923) is on record?
**A.** The remaining activity at 3.75 µM was 99.3%.

**Q.** What about the remaining activity at 1.25 µM ([2]; Well no.=923) of the same molecule?
**A.** Its remaining activity at 1.25 µM is 94.3%.

**Q.** Which results are given for COc1cc(OC)c(C=C2C(=O)Nc3ccccc32)c(OC)c1 [IC261]?
**A.** remaining activity at 3.75 µM ([1]; Well no.=2506): 103%; remaining activity at 1.25 µM ([2]; Well no.=2506): 103%

**Q.** Which remaining activity at 3.75 µM ([1]; Well no.=2945) does the source give for Cc1ccccc1-n1c(Cn2cnc3c(N)ncnc32)nc2cccc(C)c2c1=O [IC87114] here?
**A.** The remaining activity at 3.75 µM was 97.6%.

**Q.** And the remaining activity at 1.25 µM ([2]; Well no.=2945)?
**A.** The remaining activity at 1.25 µM was 98.3%.

**Q.** For O=C(Nc1ccc(S(=O)(=O)Nc2nccs2)cc1)C(c1ccccc1)c1ccccc1 [ICA-121431], which remaining activity at 3.75 µM ([1]; Well no.=7878) is on record?
**A.** The remaining activity at 3.75 µM was 99.6%.

**Q.** And the remaining activity at 1.25 µM ([2]; Well no.=7878)?
**A.** The remaining activity at 1.25 µM was 98.2%.

**Q.** How did the remaining activity at 3.75 µM ([1]; Well no.=1113) turn out when Cc1ccc(OC[C@H](O)[C@@H](C)NC(C)C)c2c1CCC2 [ICI 118,551 hydrochloride] was run?
**A.** The remaining activity at 3.75 µM was 102%.

**Q.** And the remaining activity at 1.25 µM ([2]; Well no.=1113)?
**A.** Its remaining activity at 1.25 µM is 100%.

**Q.** For CN(C(=O)Cc1ccc(Cl)c(Cl)c1)C(CN1CCCC1)c1cccc(OCC(=O)O)c1 (stereo not shown) [ICI 204,448 hydrochloride], which remaining activity at 3.75 µM ([1]; Well no.=1065) is on record?
**A.** The remaining activity at 3.75 µM was 104%.

**Q.** And the remaining activity at 1.25 µM ([2]; Well no.=1065)?
**A.** Its remaining activity at 1.25 µM is 101%.

**Q.** O=C(O)CC/C=C\C[C@H]1CO[C@@H](c2ccccc2Cl)O[C@H]1c1ccccc1O [ICI 192605] was tested. Which remaining activity at 3.75 µM ([1]; Well no.=5873) did it give?
**A.** The remaining activity at 3.75 µM was 100%.

**Q.** And the remaining activity at 1.25 µM ([2]; Well no.=5873)?
**A.** The remaining activity at 1.25 µM was 98.7%.

**Q.** What does the source list for Nc1nonc1C(=Nc1ccc(F)c(Cl)c1)NO [IDO5L]?
**A.** remaining activity at 3.75 µM ([1]; Well no.=8263): 103%; remaining activity at 1.25 µM ([2]; Well no.=8263): 107%
